In patent US9701667B2, “Coumarin-based fluorogenic agents and uses thereof for specific protein labelling” (UNIVERSITY OF OTTAWA, priority 2014, dated 2017):
Entries after “also recorded” stand apart in the source; their conditions may differ.

Key:
MBP-dC10α [1] = test: Fluorescence properties and fluorescence enhancement (FE) before/after labelling of model target protein; type: biochemical; conditions: for Fluorescence enhancement (FE): after labelling with MBP-dC10, λex = 440 nm, λem = 485 nm, 50 mM HEPES pH 7.4; for fluorescence after the labelling reaction: after reaction with MBP-dC10α; for background (intrinsic) fluorescence before labelling / quenching: fluorogen without target protein
Experimental: For experiments described herein, maltose-binding protein (MBP) was chosen as a highly-soluble test protein and the dC10α tag was fused to its C-terminus (MBP-dC10α) as described previously (Guy, J. et al., Mol. Biosyst. 2010, 6, 976-987).
Emission spectra and fluorescence intensity measurements were recorded at 37° C. with a Synergy H4 Hybrid Multi-Mode Microplate Reader with excitation and emission monochromators set at 9 nm bandpass. The mixture of 100 μM solution of fluorogen (YCx) and 100 μM MBP-dC10 in 50 mM HEPES buffer (pH 7.4) with 5% DMSO was incubated at 37° C. in the dark for 12 hours, after which the fluorescence emission spectrum of a dilution (25 μM final) in 50 mM HEPES buffer with 5% DMSO was recorded. The emission spectra of the corresponding labelling reagent in same solution without MBP-dC10α were also recorded. The ratio of fluorescence intensity at maximum emission gave the fluorescence enhancement (FE) ratio.

[2] = Kinetic studies of consecutive thiol addition reactions with model thiol MPA; conditions: for first thiol addition faster than second addition: ratio of first to second MPA addition rate; for k1 / k2: second order rate constant, 50 mM HEPES pH 7.4, 5% DMSO, 37° C.; for k1: first thiol addition of MPA; for k2: second thiol addition of MPA
Experimental: Kinetic studies were then performed for the thiol addition reactions of YC5 and YC9 with 3-mercaptopropionic acid (MPA) as a water-soluble, nucleophilic model thiol (Scheme 13). Reactions were run in the presence of a large excess of MPA, making them pseudo-first order in fluorogen. The resulting time-dependent increase in fluorescence was fit to a model for consecutive first order reactions, providing pseudo-first order rate constants for both addition steps. The concentration of MPA was then varied, allowing second order rate constants to be calculated for both steps.
where I is fluorescence intensity, and the fluorescence intensity is linearly proportional to the concentration, since the concentration of fluorogen used here is within the linear range. So IA=a*[A]; IB=b*[B]; IP=p*[P]; [A]0=2.5*10^−5. With this formula, there will be 5 parameters, but based on the nature of the reaction and the fluorescent properties of the compounds, the 5 parameters can be restrained as: p>b>a>0; k1>k2>0. Finally, the formula and the conditions were applied in Origin 6.0 to fit the curves by non-linear regression, yielding values for the kobs for each step.
Kinetic experiments were carried out at 37° C. using Synergy H4 Hybrid Multi-Mode Microplate Reader with excitation and emission monochromators 9 nm bandpass. Solutions with different MPA concentrations were prepared in 96-well plate and labelling reagent (YC5 or YC9) in DMSO was added immediately before recording. The final concentration of labelling reagent was 25 μM and the final concentrations of MPA were 0.875 mM, 1 mM, 1.125 mM or 1.25 mM in 50 mM HEPES buffer (pH 7.4) with 5% DMSO (FIG. 12). Samples were excited at 440 nm and fluorescence intensity was followed at 485 nm as a function of time. All the time-dependent fluorescence increase curves were fitted by non-linear regression according to the formula from the last section using Origin to get kobs. kobs was plotted against MPA concentrations to obtain a second order rate constant.

[3] = Time-dependent fluorescence increase on reaction with GSH; conditions: for reaction with GSH: 50 mM HEPES pH 7.4; for reaction with low concentration of GSH / reaction with high concentration (large excess) of GSH: 25 μM fluorogen; for reaction with low concentration of GSH: 50 μM GSH; for reaction with high concentration (large excess) of GSH: 1 mM GSH
Experimental: (§1) Reactivity was tested through the time-dependent fluorescence increase at 37° C. using Synergy H4 Hybrid Multi-Mode Microplate Reader with excitation and emission monochromators set to 9 nm bandpass. All reactions were prepared in 50 mM HEPES buffer (pH 7.4) with 5% DMSO. Solutions of MBP-dC10α or GSH were prepared in 96-well plates and labelling reagent (YCx) in DMSO was added immediately before recording. The final concentration of labelling reagent was 25 μM, the final concentration of MBP-dC10α was 25 μM and the final concentration of GSH was 50 μM or 1 mM in 50 mM HEPES buffer (pH 7.4) with 5% DMSO. Samples were excited at 440 nm and fluorescence intensity was followed at 485 nm as a function of time.

MBP-dC10α [4] = test: Time-dependent fluorescence increase on reaction with test protein; type: biochemical; conditions: for selectivity of labelling target protein over GSH: MBP-dC10 versus GSH; for reactivity with test protein MBP-dC10: 25 μM fluorogen, 25 μM MBP-dC10, 50 mM HEPES pH 7.4
Experimental: as §1

cmyc-mNeptune-dC10α = test: Intracellular labelling of test protein in transfected cells (YC9); type: cell-based, human
Source text: The red fluorescent protein mNeptune was chosen as a target protein so that its intrinsic fluorescence would serve as a control for the transfection and expression of the target protein. The target sequence dC10α was cloned to its C-terminus and the cmyc epitope (which would ensure the protein was also at least partially directed to the nucleus) was cloned to its N-terminus. […] Furthermore, fluorescent labelling was most intense and nearly limited to cells (FIG. 11D) that expressed the target red fluorescent test protein (FIG. 11E).
HEK 293T cells were plated into 6-well plates equipped with 25 mm×25 mm coverslips and grown in DMEM supplemented with 10% FBS 16 h before transfection. Cells were transiently transfected with mNeptune-dC10α or pcDNA3.1 using lipofectamine 2000. Either 24 or 48 h after transfection, the cells were washed with complete DMEM and incubated with 25 μM YC9 in DMEM for 30 min at 37° C. The media with labelling reagent was removed and followed by 3 times washing over 3 h at 37° C. Cells were fixed after labelling for imaging on a Carl Zeiss Axiophot inverted microscope.

HEK293T cells = test: MTT cytotoxicity assay; type: cell-based, human; conditions: 20 h incubation
Experimental: 3-(4,5-Dimethylthiazol-2-yl)-2,5-diphenyl tetrazolium bromide (MTT) is a yellow tetrazolium salt and can be reduced to formazan crystals, which are insoluble in aqueous solutions, by active mitochondria in living cells. The resulting intracellular purple formazan can be dissolved in Triton X100, and therefore quantified by measuring absorption of the solution.
Cells were seeded in a 96-well plate and incubated with 100 μL of culture medium with different amounts of the fluorogen YCx for 16 h. No fluorogen was added to the positive control and no cells were plated in the negative control. Portions of 25 μL of MTT solution (5 mg in 1 mL of Hanks' balanced salt solution) were added to the wells and the cells were further incubated at 37° C. for 4 h. Solubilization solutions (100 μL) were then added and incubated in 96-well plates at room temperature in the dark overnight. The absorption of each well was measured using a plate reader at a wavelength of 570 nm with 690 nm as a reference. Cell viability was calculated according to the following equation: Cell viability=(Awith fluorogen−Anegative control)/(Apositive control−Anegative control).

Aqueous solubility = type: physicochemical

SMILES | Fluorescence enhancement (FE) (MBP-dC10α [1]) | background (intrinsic) fluorescence before labelling / quenching (MBP-dC10α [1]) | reaction with low concentration of GSH [3] | reaction with high concentration (large excess) of GSH [3] | further results
CCN(CC)c1ccc2cc(C(=O)Nc3cc(N4C(=O)C=C(C)C4=O)cc(N4C(=O)C=C(C)C4=O)c3)c(=O)oc2c1 [YC5, N-(3,5-bis(3-methyl-2,5-dioxo-2,5-dihydro-1H-pyrrol-1-yl)phenyl)-7-(diethylamino)-2-oxo-2H-chromene-3-carboxamide] | 69 | negligible background fluorescence |  |  | fluorescence after the labelling reaction (MBP-dC10α [1]): strong fluorescence; also recorded: strongly fluorescent; first thiol addition faster than second addition [2]: 7 times; k1 [2]: 1.208 ± 0.249 M⁻¹ s⁻¹; k2 [2]: 0.1571 ± 0.0510 M⁻¹ s⁻¹; reaction with GSH [3]: still appreciable; selectivity of labelling target protein over GSH (MBP-dC10α [4]): reacted faster with MBP-dC10α than with GSH
CCN(CC)c1ccc2cc(C(=O)Nc3cc(N4C(=O)C=C(C)C4=O)cc(N4C(=O)C=C(OC)C4=O)c3)c(=O)oc2c1 [YC9, 7-(Diethylamino)-N-(3-(3-methoxy-2,5-dioxo-2,5-dihydro-1H-pyrrol-1-yl)-5-(3-methyl-2,5-dioxo-2,5-dihydro-1H-pyrrol-1-yl)phenyl)-2-oxo-2H-chromene-3-carboxamide] | 62 | negligible background fluorescence | did not react | showed some signal | fluorescence after the labelling reaction (MBP-dC10α [1]): strongly fluorescent; first thiol addition faster than second addition [2]: 63 times; k1 [2]: 2.480 ± 0.216 M⁻¹ s⁻¹; k2 [2]: 0.0388 ± 0.0133 M⁻¹ s⁻¹; melting point: 88.3 to 93.7 °C; reaction with GSH [3]: completely suppressed; reactivity with test protein MBP-dC10 (MBP-dC10α [4]): still rapid; selectivity of labelling dC10α-tagged target protein in living cells (cmyc-mNeptune-dC10α; HEK293 cells transfected with cmyc-mNeptune-dC10α, 25 μM YC9, 30 min): high selectivity; background fluorescence in mock-transfected cells (cmyc-mNeptune-dC10α; cells transfected with empty (mock) vector, 25 μM YC9): minimal background fluorescence
CCC1=CC(=O)N(c2cc(NC(=O)c3cc4ccc(N(CC)CC)cc4oc3=O)cc(N3C(=O)C=C(C)C3=O)c2)C1=O [YC15] | 226 |  | did not react | showed some signal | 
CCN(CC)c1ccc2cc(C(=O)Nc3cc(N4C(=O)C=C(C)C4=O)cc(N4C(=O)C=C(C(C)C)C4=O)c3)c(=O)oc2c1 [YC16] | 228 |  | did not react | showed some signal | 
CCOC1=CC(=O)N(c2cc(NC(=O)c3cc4ccc(N(CC)CC)cc4oc3=O)cc(N3C(=O)C=C(C)C3=O)c2)C1=O [YC17] | 194 |  | did not react | showed some signal | 
CCN(CC)c1ccc2cc(C(=O)Nc3cc(N4C(=O)C=C(C)C4=O)cc(N4C(=O)C=C(Br)C4=O)c3)c(=O)oc2c1 [YC18] | 468 |  |  |  | reactivity with test protein MBP-dC10 (MBP-dC10α [4]): much more reactive than other fluorogens; also recorded: labelled the protein most efficiently; selectivity of labelling target protein over GSH (MBP-dC10α [4]): did not show much difference; also recorded: not as selectively as other fluorogens
CCN(CC)c1ccc2cc(C(=O)Nc3cc(N4C(=O)C=C(C)C4=O)cc(N4C(=O)C=C(OC(C)C)C4=O)c3)c(=O)oc2c1 [YC19] | 189 |  | did not react | showed some signal | 
COC(=O)CCN(CCC(=O)OC)c1ccc2cc(C(=O)Nc3cc(N4C(=O)C=C(OC)C4=O)cc(N4C(=O)C=C(OC)C4=O)c3)c(=O)oc2c1 [YC21M, Dimethyl 3,3′-((3-((3,5-bis(3-methoxy-2,5-dioxo-2,5-dihydro-1H-pyrrol-1-yl)phenyl)carbamoyl)-2-oxo-2H-chromen-7-yl)azanediyl)dipropanoate] |  |  |  |  | cytotoxicity (cell viability, MTT) (HEK293T cells): neither showed any cytotoxicity up to 100 μM
COc1ccc2cc(C(=O)N3CCN(C(=O)c4cc(N5C(=O)C=C(C)C5=O)cc(N5C(=O)C=C(C)C5=O)c4)CC3)c(=O)oc2c1 [YC24, 1,1′-(5-(4-(7-methoxy-2-oxo-2H-chromene-3-carbonyl)piperazine-1-carbonyl)-1,3-phenylene)bis(3-methyl-1H-pyrrole-2,5-dione)] |  | quenched very efficiently |  |  | fluorescence after the labelling reaction (MBP-dC10α [1]): weak
CCN(CC)c1ccc2cc(C(=O)N3CCN(C(=O)c4cc(N5C(=O)C=C(C)C5=O)cc(N5C(=O)C=C(C)C5=O)c4)CC3)c(=O)oc2c1 [YC25, 1,1′-(5-(4-(7-(diethylamino)-2-oxo-2H-chromene-3-carbonyl)piperazine-1-carbonyl)-1,3-phenylene)bis(3-methyl-1H-pyrrole-2,5-dione)] |  | strong background fluorescence |  |  | 
COc1ccc2cc(C(=O)Nc3cc(N4C(=O)C=C(C)C4=O)cc(N4C(=O)C=C(C)C4=O)c3)c(=O)oc2c1 [YC26, N-(3,5-bis(3-methyl-2,5-dioxo-2,5-dihydro-1H-pyrrol-1-yl)phenyl)-7-methoxy-2-oxo-2H-chromene-3-carboxamide] |  |  |  |  | aqueous solubility (Aqueous solubility): poor aqueous solubility
